Measured values as given in patent US10123993B2, “Cyclic ureas as inhibitors of rock” (BRISTOL-MYERS SQUIBB COMPANY, priority 2015, dated 2018).

What follows are molecules tested against ROCK2 (Homo sapiens, UniProt O75116) (assay: ROCK2 kinase inhibition assay (Caliper LABCHIP, FITC peptide substrate)). Settings: 5 μM ATP, 1.5 μM peptide substrate; value ranges.
Assay type: biochemical
Outline: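 Rho kinase with 5 μM ATP and 1.5 μM FITC-AHA-AKRRRLSSLRA-OH peptide in HEPES pH 7.5, 20 mM MgCl2, 0.015% Brij-35, 4 mM DTT, DMSO <2%. EDTA stop; phospho and non-phospho peptide separated on LabChip. IC50 from dose-response fit.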

Sequence of ROCK2 (O75116 whole entry, species assumed): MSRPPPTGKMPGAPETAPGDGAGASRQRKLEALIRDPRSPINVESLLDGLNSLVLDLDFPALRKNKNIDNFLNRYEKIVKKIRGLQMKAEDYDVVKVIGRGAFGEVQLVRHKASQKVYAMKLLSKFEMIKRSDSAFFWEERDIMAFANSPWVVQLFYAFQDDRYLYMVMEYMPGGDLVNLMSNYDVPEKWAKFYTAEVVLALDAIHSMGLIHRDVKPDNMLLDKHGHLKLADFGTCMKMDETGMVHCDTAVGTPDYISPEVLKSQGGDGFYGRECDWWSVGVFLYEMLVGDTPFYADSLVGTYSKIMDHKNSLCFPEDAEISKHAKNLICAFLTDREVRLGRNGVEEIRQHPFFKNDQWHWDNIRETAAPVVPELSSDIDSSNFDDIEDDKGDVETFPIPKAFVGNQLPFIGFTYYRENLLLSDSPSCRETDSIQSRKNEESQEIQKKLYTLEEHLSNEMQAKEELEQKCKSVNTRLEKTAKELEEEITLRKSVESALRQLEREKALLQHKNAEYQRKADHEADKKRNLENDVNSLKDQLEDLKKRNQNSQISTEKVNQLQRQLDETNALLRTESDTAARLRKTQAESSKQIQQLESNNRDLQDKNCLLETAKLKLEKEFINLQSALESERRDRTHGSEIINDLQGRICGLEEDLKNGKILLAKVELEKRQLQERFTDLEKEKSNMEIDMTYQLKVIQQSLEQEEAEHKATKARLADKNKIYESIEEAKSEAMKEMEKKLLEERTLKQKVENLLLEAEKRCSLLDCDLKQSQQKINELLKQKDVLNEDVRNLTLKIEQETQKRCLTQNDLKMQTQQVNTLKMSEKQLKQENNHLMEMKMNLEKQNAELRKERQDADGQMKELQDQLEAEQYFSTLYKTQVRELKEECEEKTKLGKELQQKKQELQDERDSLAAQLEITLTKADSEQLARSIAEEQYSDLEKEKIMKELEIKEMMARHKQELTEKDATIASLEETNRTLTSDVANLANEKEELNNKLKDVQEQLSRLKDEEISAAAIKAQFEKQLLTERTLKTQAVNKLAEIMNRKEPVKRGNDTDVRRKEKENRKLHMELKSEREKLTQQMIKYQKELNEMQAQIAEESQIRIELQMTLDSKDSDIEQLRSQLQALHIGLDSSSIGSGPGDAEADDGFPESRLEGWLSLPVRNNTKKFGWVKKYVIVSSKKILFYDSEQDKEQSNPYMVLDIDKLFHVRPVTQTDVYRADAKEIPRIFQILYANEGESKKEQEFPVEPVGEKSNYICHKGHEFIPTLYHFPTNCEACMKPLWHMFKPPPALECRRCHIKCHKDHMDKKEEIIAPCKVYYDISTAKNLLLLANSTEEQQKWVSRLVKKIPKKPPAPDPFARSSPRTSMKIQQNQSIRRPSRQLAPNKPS

| SMILES | IC50 |
| --- | --- |
| COc1ccc(CN2CCN(c3ccc(-c4cn[nH]c4)cc3)C2=O)cc1F [Example 117, 1-(4-(1H-pyrazol-4-yl)phenyl)-3-(3-fluoro-4-methoxybenzyl)imidazolidin-2-one] | 200 to 2000 nM |
| COc1cc(F)cc(CN2CCN(c3ccc(-c4cn[nH]c4)cc3)C2=O)c1 [Example 118, 1-(4-(1H-pyrazol-4-yl)phenyl)-3-(3-fluoro-5-methoxybenzyl)imidazolidin-2-one] | < 2 nM |
| COc1ccc(F)cc1CN1CCN(c2ccc(-c3cn[nH]c3)cc2)C1=O [Example 119, 1-(4-(1H-pyrazol-4-yl)phenyl)-3-(5-fluoro-2-methoxybenzyl)imidazolidin-2-one] | 20.1 to 200 nM |
| COc1ccc(F)c(CN2CCN(c3ccc(-c4cn[nH]c4)cc3)C2=O)c1 [Example 120, 1-(4-(1H-pyrazol-4-yl)phenyl)-3-(2-fluoro-5-methoxybenzyl)imidazolidin-2-one] | 20.1 to 200 nM |
| COc1cccc(CN2C(=O)N(c3ccc(-c4cn[nH]c4)cc3)C(=O)C2CO)c1 (centres unmarked) [Example 121, 3-(4-(1H-Pyrazol-4-yl)phenyl)-5-(hydroxymethyl)-1-(3-methoxybenzyl)imidazolidine-2,4-dione] | 200 to 2000 nM |
| COc1cccc([C@@H](C)N2CCN(c3ccc(-c4cn[nH]c4)cc3)C2=O)c1 [Example 122, (R)-1-(4-(1H-Pyrazol-4-yl)phenyl)-3-(1-(3-methoxyphenyl)ethyl)imidazolidin-2-one] | < 2 nM |
| COc1cccc(CN2C(=O)N(c3ccc(-c4cn[nH]c4)cc3)C[C@@H]2CO)c1 [Example 125, (R)-1-(4-(1H-Pyrazol-4-yl)phenyl)-4-(hydroxymethyl)-3-(3-methoxybenzyl)imidazolidin-2-one] | < 2 nM |
| COc1cc(F)cc(CN2C(=O)N(c3ccc(-c4cn[nH]c4)cc3)C[C@H]2CO)c1 [Example 129, (S)-1-(4-(1H-pyrazol-4-yl)phenyl)-3-(3-fluoro-5-methoxy-benzyl)-4-(hydroxy-methyl)-imidazolidin-2-one] | < 2 nM |
| COc1cccc(CN2C(=O)N(c3ccc(-c4cn[nH]c4)cc3)CC2(C)C)c1 [Example 137, 1-(4-(1H-Pyrazol-4-yl)phenyl)-3-(3-methoxybenzyl)-4,4-dimethylimidazolidin-2-one] | < 2 nM |
| COc1cc(F)cc(CN2C(=O)N(c3ccc(-c4cn[nH]c4)cc3)CC2(C)C)c1 [Example 138, 1-(4-(1H-pyrazol-4-yl)phenyl)-3-(3-fluoro-5-methoxy-benzyl)-4,4-dimethyl-imidazolidin-2-one] | 2.1 to 20 nM |
| COc1ccc(CN2C(=O)N(c3ccc(-c4cn[nH]c4)cc3)CC2(C)C)cc1F [Example 139, 1-(4-(1H-pyrazol-4-yl)phenyl)-3-(3-fluoro-4-methoxy-benzyl)-4,4-dimethyl-imidazolidin-2-one] | 200 to 2000 nM |
| COc1cc(CN2C(=O)N(c3ccc(-c4cn[nH]c4)cc3)CC2(C)C)ccc1F [Example 140, 1-(4-(1H-pyrazol-4-yl)phenyl)-3-(4-fluoro-3-methoxy-benzyl)-4,4-dimethyl-imidazolidin-2-one] | 2.1 to 20 nM |
| CC1(C)CN(c2ccc(-c3cn[nH]c3)cc2)C(=O)N1Cc1cccc(F)c1 [Example 141, 1-(4-(1H-pyrazol-4-yl)phenyl)-3-(3-fluoro-benzyl)-4,4-dimethyl-imidazolidin-2-one] | 2.1 to 20 nM |
| CC1(C)CN(c2ccc(-c3cn[nH]c3)cc2)C(=O)N1Cc1cccc(OC(F)F)c1 [Example 142, 1-(4-(1H-pyrazol-4-yl)phenyl)-3-(3-(difluoro-methoxy)-benzyl)-4,4-dimethyl-imidazolidin-2-one] | 20.1 to 200 nM |
| COc1cccc(CN2C(=O)N(c3ccc(-c4cn[nH]c4)cc3)CC2(C)C)c1F [Example 143, 1-(4-(1H-pyrazol-4-yl)phenyl)-3-(2-fluoro-3-methoxy-benzyl)-4,4-dimethyl-imidazolidin-2-one] | 20.1 to 200 nM |
| CC1(C)CN(c2ccc(-c3cn[nH]c3)cc2)C(=O)N1Cc1cccc(OCC2CC2)c1 [Example 144, 1-(4-(1H-pyrazol-4-yl)phenyl)-3-(3-(cyclo-propyl-methoxy)benzyl)-4,4-dimethyl-imidazolidin-2-one] | 2.1 to 20 nM |
| CCc1cc(N2CC(C)(C)N(Cc3cc(F)cc(OC)c3)C2=O)ccc1-c1cn[nH]c1 [Example 147, 1-(3-ethyl-4-(1H-pyrazol-4-yl)-phenyl)-3-(3-fluoro-5-methoxy-benzyl)-4,4-dimethyl-imidazolidin-2-one] | 2.1 to 20 nM |
| CCc1cc(N2CC(C)(C)N(Cc3cccc(OC)c3)C2=O)ccc1-c1cn[nH]c1 [Example 148, 1-(3-ethyl-4-(1H-pyrazol-4-yl)phenyl)-3-(3-methoxy-benzyl)-4,4-dimethyl-imidazolidin-2-one] | 2.1 to 20 nM |
| COc1cc(F)cc(CN2C(=O)N(c3ccc(-c4cn[nH]c4)c(C)n3)CC2(C)C)c1 [Example 151, 3-(3-fluoro-5-methoxy-benzyl)-4,4-dimethyl-1-(6-methyl-5-(1H-pyrazol-4-yl)pyridin-2-yl)-imidazolidin-2-one] | 2.1 to 20 nM |

| SMILES | IC50 |
| --- | --- |
| COc1cc(CN2C(=O)N(c3ccc(-c4cn[nH]c4)c(C)n3)CC2(C)C)ccc1F [Example 152, 3-(4-fluoro-3-methoxy-benzyl)-4,4-dimethyl-1-(6-methyl-5-(1H-pyrazol-4-yl)pyridin-2-yl)-imidazolidin-2-one] | 2.1 to 20 nM |
| COc1cccc(CN2C(=O)N(c3ccc(-c4cn[nH]c4)cc3)C(=O)C2CO)c1 (centres unmarked) [Example 153, 3-(4-(1H-Pyrazol-4-yl)phenyl)-5-(hydroxymethyl)-1-(3-methoxybenzyl)imidazolidine-2,4-dione] | 200 to 2000 nM |
| CCc1nc(N2CCN(Cc3cccc(OC)c3)C2=O)ccc1-c1cn[nH]c1 [Example 167, 1-(6-ethyl-5-(1H-pyrazol-4-yl)pyridin-2-yl)-3-(3-methoxy-benzyl) imidazolidin-2-one] | < 2 nM |
| CCc1nc(N2CCN(Cc3cc(F)cc(OC)c3)C2=O)ccc1-c1cn[nH]c1 [Example 168, 1-(6-ethyl-5-(1H-pyrazol-4-yl)pyridin-2-yl)-3-(3-fluoro-5-methoxy-benzyl) imidazolidin-2-one] | < 2 nM |
| CCc1nc(N2CCN(Cc3cccc(OCC4CC4)c3)C2=O)ccc1-c1cn[nH]c1 [Example 169, 1-(3-(cyclo-propyl-methoxy)-benzyl)-3-(6-ethyl-5-(1H-pyrazol-4-yl)pyridin-2-yl)-imidazolidin-2-one] | 20.1 to 200 nM |
| CCc1nc(N2CCN(Cc3ccc(F)c(OC)c3)C2=O)ccc1-c1cn[nH]c1 [Example 170, 1-(6-ethyl-5-(1H-pyrazol-4-yl)pyridin-2-yl)-3-(4-fluoro-3-methoxy-benzyl) imidazolidin-2-one] | 2.1 to 20 nM |
| CCc1nc(-n2ccn(Cc3ccc(F)c(OC)c3)c2=O)ccc1-c1cn[nH]c1 [Example 171, 1-(6-ethyl-5-(1H-pyrazol-4-yl)pyridin-2-yl)-3-(4-fIuoro-3-methoxy-benzyl)-1H-imidazol-2(3H)-one] | 20.1 to 200 nM |
| CCc1nc(-n2ccn(Cc3cc(F)cc(OC)c3)c2=O)ccc1-c1cn[nH]c1 [Example 172, 1-(6-ethyl-5-(1H-pyrazol-4-yl)pyridin-2-yl)-3-(3-fluoro-5-methoxy-benzyl)-1H-imidazol-2(3H)-one] | 2.1 to 20 nM |
| CCC1CN(c2ccc(-c3cn[nH]c3)cc2)C(=O)N1Cc1cccc(OC)c1 (centres unmarked) [Example 175, 1-(4-(1H-pyrazol-4-yl)phenyl)-4-ethyl-3-(3-methoxy-benzyl) imidazolidin-2-one] | < 2 nM |
| CCC1CN(c2ccc(-c3cn[nH]c3)cc2)C(=O)N1Cc1cc(F)cc(OC)c1 (centres unmarked) [Example 176, 1-(4-(1H-pyrazol-4-yl)phenyl)-4-ethyl-3-(3-fluoro-5-methoxy-benzyl) imidazolidin-2-one] | < 2 nM |
| CCC1CN(c2ccc(-c3cn[nH]c3)cc2)C(=O)N1Cc1cccc(OCC2CC2)c1 (centres unmarked) [Example 177, 1-(4-(1H-pyrazol-4-yl)phenyl)-3-(3-(cyclo-propyl-methoxy)-benzyl)-4-ethyl-imidazolidin-2-one] | 20.1 to 200 nM |
| COc1cc(F)cc(CN2CCN(c3ccc(-c4cn[nH]c4)c(C)n3)C2=O)c1 [Example 178, 1-(3-fluoro-5-methoxy-benzyl)-3-(6-methyl-5-(1H-pyrazol-4-yl)pyridin-2-yl)-imidazolidin-2-one] | 2.1 to 20 nM |
| COc1cccc(CN2CCN(c3ccc(-c4cn[nH]c4)c(C)n3)C2=O)c1 [Example 179, 1-(3-methoxy-benzyl)-3-(6-methyl-5-(1H-pyrazol-4-yl)pyridin-2-yl)-imidazolidin-2-one] | 2.1 to 20 nM |
| CCc1nc(-n2ccn(Cc3cccc(OC)c3)c2=O)ccc1-c1cn[nH]c1 [Example 180, 1-(6-ethyl-5-(1H-pyrazol-4-yl)pyridin-2-yl)-3-(3-methoxy-benzyl)-1H-imidazol-2(3H)-one] | < 2 nM |
| COc1cc(F)cc(Cn2ccn(-c3ccc(-c4cn[nH]c4)c(C)n3)c2=O)c1 [Example 185, 1-(3-fluoro-5-methoxy-benzyl)-3-(6-methyl-5-(1H-pyrazol-4-yl)pyridin-2-yl)-1H-imidazol-2(3H)-one] | 2.1 to 20 nM |
| Cc1nc(N2CCN(Cc3cccc(OCC4CC4)c3)C2=O)ccc1-c1cn[nH]c1 [Example 186, 1-(3-(cyclo-propyl-methoxy)-benzyl)-3-(6-methyl-5-(1H-pyrazol-4-yl)pyridin-2-yl)-imidazolidin-2-one] | 20.1 to 200 nM |
| COc1cccc(Cn2ccn(-c3ccc(-c4cn[nH]c4)c(C)n3)c2=O)c1 [Example 187, 1-(3-methoxy-benzyl)-3-(6-methyl-5-(1H-pyrazol-4-yl)pyridin-2-yl)-1H-imidazol-2(3H)-one] | 2.1 to 20 nM |
| CCc1cc(N2CCN(Cc3cccc(OC)c3)C2=O)ncc1-c1cn[nH]c1 [Example 190, 1-(4-ethyl-5-(1H-pyrazol-4-yl)pyridin-2-yl)-3-(3-methoxy-benzyl) imidazolidin-2-one] | 200 to 2000 nM |
| CCc1cc(N2CCN(Cc3cc(F)cc(OC)c3)C2=O)ncc1-c1cn[nH]c1 [Example 191, 1-(4-ethyl-5-(1H-pyrazol-4-yl)pyridin-2-yl)-3-(3-fluoro-5-methoxy-benzyl) imidazolidin-2-one] | 200 to 2000 nM |
